Reference: patent publication US10556943B2, “HLA-DR binding peptides and their uses” (priority 2007, dated 2020)
Ends that are not written are not given here.

Experiments:
[1] = target: T1, purified HLA DRB1*0701 (Homo sapiens, UniProt P01903+P01911, A100R/A102G/A103Q/D57E/D86V/E43K/F76Y/K127E/L162R/M171V/P40G/Q125H/Q99D/R33Q/R42Y/R54Q/S133A/S66F/T210M/V115G/Y107V/Y59L/Y89S); experiment: HLA-DR radioligand binding inhibition assay, DRB1*0701
T1 construct: MHC molecules utilized were purified from EBV transformed homozygous cell lines or single MHC allele transfected 721.221, C1R, or fibroblast lines; made in house; host or cells: EBV transformed homozygous cell lines or single MHC allele transfected 721.221, C1R, or fibroblast lines
Method: (§1) Fifteen distinct HLA-DR molecules were used in quantitative assays to measure the binding of peptides to solubilized HLA-DR molecules. […] Briefly, columns of inactivated Sepharose CL4B and Protein A Sepharose were used as pre-columns. HLA-DR molecules were captured by passage of lysates over LB3.1 monoclonal antibody (anti-HLA-DRA) columns. Antibody columns were washed with 10 mM Tris-HCL, pH8.0 with 1% (v/v) NP-40, followed by PBS containing 0.4% (w/v) n-octylglucoside.
(§2) Briefly, 1-10 nM of radiolabeled peptide was co-incubated for 2 days at either room temperature or 37° C. with 1 μM to 1 nM purified HLA-DR molecules in the presence of a cocktail of protease inhibitors. Assays were performed at various pH conditions, ranging from pH 4 to pH 7. […] After incubation, the percentage of HLA-DR-bound radioactivity is determined by capturing HLA-DR/peptide complexes on Optiplates (Packard Instruments, Meriden, Conn.) coated with the LB3.1 antibody and determining bound counts per minute using the TopCount microscintillation counter (Packard Instruments).

[2] = tested on: patient-derived PBMC; experiment: 10-day interferon-gamma ELIspot on PBMC of patients and healthy donors; type: cell-based, human; conditions: for % = Percent of patients with responses: ELIspot, patients with either breast or ovarian cancer; for fraction of patients that had mean T cell values above the cutoff: cutoff = mean and two standard deviations of normal healthy individuals
Text: Enzyme-linked immunosorbent spot assay.
An interferon-gamma ELIspot assay was used to assess immunity to the indiscriminate binding peptides in 48 patients with either breast or ovarian cancer and 18 healthy controls.
Using an ELIspot assay with a limit of detection of approximately 1:100,000 antigen-specific T cells per million PBMC, patient-derived PBMC were screened for reactivity against all of the HLA-DR binding peptides.

[3] = tested on: short term T cell lines; experiment: IFN-γ ELISpot analysis of short term T cell lines (natural processing); type: cell-based, human; conditions: T cell lines respond to peptide and protein fragment; FIGS. 5, 6
[4] = target: T2, purified HLA DRB1*0404 (Homo sapiens, UniProt P01903+P01911, A100R/A169T/F76Y/I96L/K127E/L162R/M171V/N62H/P40V/Q125Y/R42H/S133A/S149N/S66Y/V209L/W38E); experiment: HLA-DR radioligand binding inhibition assay, DRB1*0404
T2 construct: MHC molecules utilized were purified from EBV transformed homozygous cell lines or single MHC allele transfected 721.221, C1R, or fibroblast lines; made in house; host or cells: EBV transformed homozygous cell lines or single MHC allele transfected 721.221, C1R, or fibroblast lines
Method: as §1, with “n-octylglucoside. […] The pH was reduced to 8.0 and the eluates were concentrated by centrifugation in Centriprep 30 concentrators at 2000 rpm (Amicon, Beverly, Mass.).” for “n-octylglucoside.”
as §2, with “Instruments). […] Competitor peptides are tested in 2-4 complete, independent experiments, at concentrations ranging from 30 μg/mL to 300 pg/mL.” for “Instruments).”

| Compound | % = Percent of patients with responses [2] [%] | naturally processed and presented antigen [3] | other results |
| --- | --- | --- | --- |
| CC[C@H](C)[C@H](NC(=O)[C@H](C)NC(=O)[C@@H](NC(=O)[C@@H]1CCCN1C(=O)[C@@H](NC(=O)[C@@H](N)CCCCN)[C@@H](C)CC)C(C)C)C(=O)N[C@@H](CCCCN)C(=O)N[C@H](C(=O)N[C@@H](CC(C)C)C(=O)N[C@@H](CCCNC(=N)N)C(=O)N[C@@H](CCC(=O)O)C(=O)N[C@@H](CC(N)=O)C(=O)N[C@H](C(=O)N[C@@H](CO)C(=O)N1CCC[C@H]1C(=O)O)[C@@H](C)O)C(C)C [Peptide 1622.03] | – | – | IC50 [1]: > 20 µM |
| CC[C@H](C)[C@H](NC(=O)[C@H](CC(=O)O)NC(=O)[C@H](CCCCN)NC(=O)[C@H](Cc1c[nH]c2ccccc12)NC(=O)[C@H](CC(C)C)NC(=O)[C@@H](NC(=O)[C@@H](NC(=O)[C@H](CC(=O)O)NC(=O)[C@H](CCC(N)=O)NC(=O)[C@H](Cc1ccc(O)cc1)NC(=O)[C@H](CS)NC(=O)[C@H](CC(C)C)NC(=O)[C@H](CCC(N)=O)NC(=O)[C@@H]1CCCN1C(=O)[C@@H](N)CC(N)=O)[C@@H](C)O)[C@@H](C)CC)C(=O)O [Peptide 9019.0041] | – | – | IC50 [1]: > 20 µM |
| CC(C)C[C@H](NC(=O)[C@H](CC(N)=O)NC(=O)[C@H](CO)NC(=O)[C@@H](NC(=O)[C@H](Cc1ccccc1)NC(=O)[C@H](CS)NC(=O)[C@H](C)NC(=O)[C@@H](N)Cc1ccc(O)cc1)C(C)C)C(=O)N[C@@H](C)C(=O)N[C@H](C(=O)NCC(=O)N[C@@H](CCCNC(=N)N)C(=O)N[C@@H](CC(N)=O)C(=O)N[C@@H](CC(N)=O)C(=O)N[C@@H](CO)C(=O)O)[C@@H](C)O [Peptide 9019.0141] | 25 | – | – |
| CC(C)C[C@H](NC(=O)[C@H](CC(C)C)NC(=O)[C@H](CC(C)C)NC(=O)[C@H](CC(C)C)NC(=O)[C@H](CC(C)C)NC(=O)[C@H](CC(C)C)NC(=O)[C@@H]1CCCN1C(=O)[C@H](CC(C)C)NC(=O)[C@H](CC(C)C)NC(=O)[C@@H]1CCCN1C(=O)[C@H](CC(C)C)NC(=O)[C@@H](N)CC(C)C)C(=O)NCC(=O)N[C@@H](C)C(=O)N[C@@H](CO)C(=O)O [Peptide 9019.0176] | – | naturally processed peptides | – |
| GDPLNNTTPVTGASP [Peptide 9019.0036] | – | – | IC50 [1]: 13.2 µM |
| CC[C@H](C)[C@H](NC(=O)[C@H](Cc1c[nH]cn1)NC(=O)[C@H](CC(C)C)NC(=O)[C@H](CO)NC(=O)[C@H](Cc1ccc(O)cc1)NC(=O)[C@H](CC(C)C)NC(=O)[C@H](Cc1c[nH]cn1)NC(=O)[C@H](CCC(=O)O)NC(=O)[C@H](CC(C)C)NC(=O)[C@@H]1CCCN1C(=O)CNC(=O)[C@H](CCCNC(=N)N)NC(=O)[C@@H](N)CCC(=O)O)C(=O)N1CCC[C@H]1C(=O)N[C@@H](CC(N)=O)C(=O)O [Peptide 9019.0190] | 23 | naturally processed peptides | – |
| CC(C)C[C@H](NC(=O)[C@H](CO)NC(=O)[C@H](C)NC(=O)[C@H](CC(N)=O)NC(=O)[C@@H](NC(=O)[C@@H]1CCCN1C(=O)[C@H](CC(C)C)NC(=O)[C@H](Cc1ccc(O)cc1)NC(=O)[C@@H](NC(=O)[C@H](CC(C)C)NC(=O)[C@H](CCC(=O)O)NC(=O)[C@H](CC(C)C)NC(=O)[C@@H](N)CC(N)=O)[C@@H](C)O)[C@@H](C)O)C(=O)N[C@@H](CO)C(=O)N[C@@H](Cc1ccccc1)C(=O)O [Peptide 9019.0030] | 15 | naturally processed and presented antigens | – |
| CC(C)C[C@H](NC(=O)[C@@H]1CCCN1C(=O)[C@@H](NC(=O)[C@@H](NC(=O)[C@@H]1CCCN1C(=O)[C@H](CC(=O)O)NC(=O)[C@H](CCC(=O)O)NC(=O)[C@H](CO)NC(=O)[C@H](Cc1ccc(O)cc1)NC(=O)[C@H](CCCNC(=N)N)NC(=O)[C@H](CCC(N)=O)NC(=O)[C@@H](N)CC(C)C)[C@@H](C)O)C(C)C)C(=O)N1CCC[C@H]1C(=O)N[C@@H](CO)C(=O)N[C@@H](CCC(=O)O)C(=O)O [Peptide 9019.0099] | – | – | IC50 [4]: 13.1 µM |
| CC[C@H](C)[C@H](NC(=O)[C@H](CC(C)C)NC(=O)[C@H](CCCCN)NC(=O)CNC(=O)[C@@H](N)[C@@H](C)O)C(=O)N[C@@H](CCC(N)=O)C(=O)NCC(=O)N[C@@H](C)C(=O)N1CCC[C@H]1C(=O)N[C@H](C(=O)N[C@H](C(=O)N[C@@H](CCCNC(=N)N)C(=O)NCC(=O)N[C@@H](CC(=O)O)C(=O)N1CCC[C@H]1C(=O)O)[C@@H](C)CC)[C@@H](C)O [Peptide 9019.0192] | – | naturally processed peptides | – |
| CC[C@H](C)[C@H](NC(=O)[C@@H](NC(=O)[C@H](CC(C)C)NC(=O)[C@H](CCCCN)NC(=O)[C@H](C)NC(=O)[C@@H](NC(=O)[C@@H](NC(=O)[C@@H]1CCCN1C(=O)[C@@H]1CCCN1C(=O)[C@H](CC(N)=O)NC(=O)[C@H](Cc1c[nH]c2ccccc12)NC(=O)[C@H](Cc1ccccc1)NC(=O)[C@@H](NC(=O)[C@H](CC(C)C)NC(=O)[C@@H](N)CC(C)C)[C@@H](C)O)[C@@H](C)O)[C@@H](C)O)[C@@H](C)O)C(=O)O [Peptide 9019.0105] | 17 | – | – |
| CC(C)C[C@H](NC(=O)[C@H](CC(C)C)NC(=O)[C@H](CC(C)C)NC(=O)[C@H](CC(C)C)NC(=O)[C@H](CC(C)C)NC(=O)[C@H](CC(C)C)NC(=O)[C@@H]1CCCN1)C(=O)NCC(=O)N[C@@H](C)C(=O)N[C@@H](CO)C(=O)NCC(=O)NCC(=O)NCC(=O)NCC(=O)NCC(=O)O [Peptide 9019.0177] | – | naturally processed peptides | – |
| CC[C@H](C)[C@H](N)C(=O)N[C@@H](CCCCN)C(=O)N[C@@H](Cc1c[nH]c2ccccc12)C(=O)N[C@@H](CCSC)C(=O)N[C@@H](C)C(=O)N[C@@H](CC(C)C)C(=O)N[C@@H](CCC(=O)O)C(=O)N[C@@H](CO)C(=O)N[C@H](C(=O)N[C@@H](CC(C)C)C(=O)N[C@@H](CCCNC(=N)N)C(=O)N[C@@H](CCCNC(=N)N)C(=O)N[C@@H](CCCNC(=N)N)C(=O)N[C@@H](Cc1ccccc1)C(=O)N[C@H](C(=O)O)[C@@H](C)O)[C@@H](C)CC [Peptide 9019.0003] | – | – | fraction of patients that had mean T cell values above the cutoff ([2]; FIG. 1): 4%; patient response rate on exclusion of one healthy individual's data point ([2]; FIG. 1, robust healthy responder excluded from cutoff): 15% |
| CC[C@H](C)[C@H](NC(=O)[C@@H]1CCCN1)C(=O)N[C@@H](CCCCN)C(=O)N[C@@H](Cc1c[nH]c2ccccc12)C(=O)N[C@@H](CCSC)C(=O)N[C@@H](C)C(=O)N[C@@H](CC(C)C)C(=O)N[C@@H](CCC(=O)O)C(=O)N[C@@H](CO)C(=O)N[C@H](C(=O)N[C@@H](CC(C)C)C(=O)N[C@@H](CCCNC(=N)N)C(=O)N[C@@H](CCCNC(=N)N)C(=O)N[C@@H](CCCNC(=N)N)C(=O)N[C@@H](Cc1ccccc1)C(=O)O)[C@@H](C)CC [Peptide 9019.0087] | 25 | naturally processed and presented antigens | fraction of patients that had mean T cell values above the cutoff ([2]; FIG. 1): 25% |
| CC[C@H](C)[C@H](NC(=O)[C@H](CCCNC(=N)N)NC(=O)[C@H](CC(C)C)NC(=O)[C@H](CCCNC(=N)N)NC(=O)[C@H](CCC(N)=O)NC(=O)[C@H](CC(C)C)NC(=O)[C@@H]1CCCN1C(=O)[C@@H](NC(=O)[C@H](CCC(N)=O)NC(=O)[C@H](CCCNC(=N)N)NC(=O)[C@@H](NC(=O)[C@H](CCC(N)=O)NC(=O)[C@H](CC(N)=O)NC(=O)[C@@H](N)Cc1c[nH]cn1)C(C)C)C(C)C)C(=O)N[C@H](C(=O)O)C(C)C [Peptide 9019.0034] | – | naturally processed and presented antigens | – |
